According to article PMC10485887, “PET Evaluation of the Novel F-18 Labeled Reversible Radioligand [^18F]GEH200449 for Detection of Monoamine Oxidase-B in the Non-Human Primate Brain” (ACS Chemical Neuroscience, 2023):

Columns and labels:
MAO-B [1] = tested on: MAO-B; set-up: method as in PMID 33284012; details: autoradiography; cited from earlier work
[2] = Fraction of unchanged radioligand in arterial plasma (radiometabolite analysis); type: in vivo, Macaca fascicularis; details: 30 min after injection
Description: (§1) At start of PET data acquisition, a sterile physiological phosphate buffer solution (pH = 7.4) of [^18F]GEH200449 (injected radioactivity, 107–167 MBq) was injected as a bolus into a sural vein. Emission data were acquired in list mode for 123 min. Arterial blood was sampled as previously described[28] using an automated blood sampling system (ABSS) during the first 3 min of each PET measurement. Subsequently, arterial blood samples (0.7–2.5 mL) were manually drawn at 7, 15, 30, 60, 90, and 120 min after injection of [^18F]GEH200449. After centrifugation, 0.15–1.0 mL of plasma was pipetted and plasma radioactivity was measured in a well counter. In addition, samples were taken directly from the ABSS at 0.5, 1, 1.5, 2, 2.5, and 3 min for cross-calibration with the well counter and for the determination of the plasma-to-blood ratio.
The fraction of plasma radioactivity corresponding to the unchanged radioligand in plasma was determined from arterial plasma samples collected at 2, 7, 15, 30, 60, 90, and 120 min after injection of [^18F]GEH200449 according to previously described procedures.[29]

MAO-B [3] = type: in vivo, Macaca fascicularis; details: from pretreatment and displacement with reference competitors
Description: Each PET measurement was performed on a separate experimental day. Experiments conducted in the same NHP were separated by at least 6 weeks. Baseline PET measurements were initially undertaken in each of the five NHPs.
Time curves for regional [^18F]GEH200449 binding at baseline were analyzed by kinetic modeling using 1-TC and 2-TC models,[32] and VT as outcome measures. Akaike information criterion[33] and F statistics were applied to select the preferred model. Regional estimates of VT for [^18F]GEH200449 were also obtained using the Logan linear graphical method[34] with t* fixed at 40 min. The analyses were performed using the kinetic modeling tool in PMOD v. 4.3. Occupancy at [^18F]GEH200449 binding sites was estimated based on regional VT values obtained by the Logan method at baseline and after drug administration according to a graphical procedure described in the literature.[22]

[4] = PET whole-brain radioactivity (brain exposure) at baseline; type: in vivo, Macaca fascicularis; details: for whole-brain radioactivity, maximum concentration: IV injection
Description: Two male and three female NHPs (#1–5) of the species M. fascicularis, weighing 4.2–8.8 kg, were supplied by the Astrid Fagraeus Laboratory, Karolinska Institutet, Solna, Sweden. Anesthesia was initiated by intramuscular injection of ketamine hydrochloride (ca. 10 mg/kg, Ketalar, Pfizer) and maintained by intravenous infusion of a mixture of ketamine hydrochloride (4 mg/kg/h) and xylazine hydrochloride (0.4 mg/kg/h Rompun Vet., Bayer).
PET measurements were conducted using the high-resolution research tomograph system (Siemens Molecular Imaging, Knoxville, TN, USA) for NHPs #1–4 and using the LFER 150 PET/CT system (Mediso Ltd., Budapest, Hungary) for NHP #5.
as §1
Dynamic images were reconstructed as previously described.[30],[31] Regions of interest (ROIs) for the whole brain and selected regions (caudate nucleus, putamen, thalamus, occipital cortex, prefrontal cortex, and cerebellum) were manually delineated on T1-weighted magnetic resonance images (MRIs) acquired as previously described.[21],[27] PET images were coregistered to the MRIs, and time-activity curves were generated by pooling ROIs for each paired anatomical region and applying the pooled ROIs to the coregistered PET images. […]

## O=c1ccoc2ccc(OCc3ccc([18F])nc3)cc12 [[^18F]GEH200449]
MAO-B [1]
  binding in human brain tissue: specific binding to MAO-B
  non-specific binding in human brain tissue: low
[2]
  parent radioligand remaining unchanged in plasma: 5–28%
MAO-B [3]
  character of binding in the NHP brain: reversible and selective toward MAO-B
[4]
  whole-brain radioactivity, maximum concentration: 4.0–6.4 %ID
[4]; n = 5 NHPs
  whole-brain radioactivity, maximum concentration: 3.4–5.2 SUV
[4]; after IV injection
  time to maximum whole-brain radioactivity concentration: 1.8 to 7.5 min
